In patent US6069172A, “(R)-2-(3-benzoylphenyl) propionic acid salts and pharmaceutical preparations containing them” (priority 1998, dated 2000):

Experiments:
PMN leukocytes = conditions: cited from earlier work
T-cell = conditions: stimulated by these agonists; cited from earlier work
TXB2 synthesis = TXB2 synthesis inhibition in human blood; assay type: cell-based; conditions: index of platelet antiaggregating properties
gastrolesive action = conditions: in vivo
platelet aggregation = assay: inhibitory action on platelet aggregation
[1] = system: ultra-violet radiation-induced epidermal erythema; conditions: topic; guinea pigs; cited from earlier work
[2] = system: carrageenin-induced oedema; conditions: compared with racemate and (S) enantiomer; rats; cited from earlier work
[3] = system: croton oil-induced ear oedema; conditions: compared with racemate and (S) enantiomer; mice; cited from earlier work
pain perception = conditions: men; compared with (S) enantiomers; cited from earlier work
[4] = rats; in words; cited from earlier work
PMN leucocyte = conditions: 200 mg for 10 days; cited from earlier work
[5] = system: chemotactic activity induced by zymosan; conditions: healthy volunteers and patients; cited from earlier work
[6] = system: carrageenin-induced pleural exudate; PMN cell migration; conditions: cited from earlier work
neutrophil = conditions: Ca^++ ionophore and FLMP; cited from earlier work

## 4-[3-(4-Fluorophenyl)]-2-[[4-(N-3-(2-quinolinmethoxy) phenyl)]amino]phenylpropylbenzoic acid [ETH-615]
PMN leukocytes; FLMP
  chemotaxis of PMN leukocytes induced by FLMP: only slightly inhibited
PMN leukocytes; IL-8 or LTB4
  chemotaxis of PMN leukocytes induced by IL-8 or LTB4: clearly inhibited
T-cell
  T-cell migration: no effects

## C[C@@H](C(=O)O)c1cccc(C(=O)c2ccccc2)c1 [(R)-ketoprofen, (R)-2-(3-benzoylphenyl)propionic acid]
TXB2 synthesis
  IC50: 9.75 ± 0.75 mM
Gastrolesive action
  gastrolesive action: substantially devoid
Platelet aggregation
  inhibitory action on platelet aggregation: substantially devoid
COX-1
  inhibition of COX-1: do not inhibit
COX-2
  inhibition of COX-2: do not inhibit
[1]
  Protection, UV radiation-induced epidermal erythema: 53.1±4.6%
[2]
  in vivo antiinflammatory effectiveness, carrageenin-induced oedema: significantly lower than those of the racemate and of the (S) enantiomer
[3]
  in vivo antiinflammatory effectiveness, croton oil-induced ear oedema: significantly lower than those of the racemate and of the (S) enantiomer
Pain perception
  inhibition of pain perception: efficacy at least similar to that of the (S) enantiomers
[4]
  conversion of (R) into (S) enantiomer: completely converted

## CC(C(=O)O)c1cccc(C(=O)c2ccccc2)c1 (racemic) [ketoprofen]
PMN leucocyte
  PMN leucocyte fagocytosis: reduction
  bactericidal function of PMN: not affected
[5]
  chemotactic activity induced by zymosan: inhibited
[6]; later demonstration against the earlier one
  migration of cells into the pleural cavity, later study: exatly the opposite
[6]; oral, PMN cells vs monocytes, thought in 1975
  migration of cells into the pleural cavity: inhibit the migration of PMN cells, but not that of monocytes
[6]; oral
  carrageenin-induced formation of pleural exudate: inhibited
neutrophil
  inhibition of neutrophil activation / blockade of Ca^++ ion entry: completely inactive
